Like-named read-outs stand apart in the source and are kept apart here.
Tests used:
[1] = tested on: clinical isolates exhibiting a wide array of PI resistance profiles; details: cited from earlier work
[2] = tested on: HIV-1 in treatment naive patients on ATV containing regimens; assay: Pooled resistance analysis of studies AI424-007/041, 008/044 and 034; format: in vivo, human; details: patients with I50L, N=10
Description: (§1) Study Population. Viral samples (baseline and on-treatment, where available) were obtained from patients who experienced virologic failure while enrolled in studies AI424-007/041 [12] (ATV+d4T and ddI), AI424-008/044 [13, 14] (ATV+d4T and 3TC) and AI424-034 [9] (ATV or EFV in combination with ZDV and 3TC). […] In general, virologic failure specimens were selected for further resistance evaluation only if they contained >1,000 copies/mL HIV-1 RNA and there was no indication that the specimen came from a patient at a time of transient non-adherence to study drug(s). […] For non-responders, samples from week 16 (or 24) were tested. Drug adherence was determined from pill counts of returned study medications at each scheduled visit.
(§2) ATV resistance was defined as ≧2-fold decrease in ATV susceptibility from baseline, a Fold Change (FC) of ≧2.5 (relative to the Nl4-3 reference strain), or evidence of an isoleucine (Ile) to leucine (Leu) change at amino acid residue 50 (I50L). Resistance levels for NFV and EFV were also defined as a FC reaching 2.5.

[3] = molecular target: HIV-1 protease (Human immunodeficiency virus type 1 group M subtype B, UniProt P04585); details: cited from earlier work
[4] = tested on: HIV-1 in treatment naive patients; assay: Clinical study AI424-007/041, virological outcomes and resistance; format: in vivo, human; details: study 007/041
Description: as §1, §2

[5] = tested on: HIV-1 in treatment naive patients; assay: Clinical study AI424-008/044, virological outcomes and resistance; format: in vivo, human; details: study 008/044
Description: as §1, §2

[6] = tested on: HIV-1 in treatment naive patients; assay: Clinical study AI424-034, virological outcomes and resistance; format: in vivo, human; details: study 034
Description: as §1, §2

[7] = tested on: clinical isolates containing a D30N substitution; assay: PhenoSense phenotypic susceptibility of clinical isolates containing D30N; format: cell-based, HIV-1; details: 75 D30N containing isolates, FIG. 3
Protocol: Drug Susceptibility Assays. Clinical isolates were subjected to phenotypic (PhenoSense™) and genotypic (GeneSeq™) analysis by Virologic, Inc. as described elsewhere.
Comparative Studies of I50L and D30N Containing Viruses. […] Comparative studies were performed on the 18 phenotyped viruses containing an I50L and 75 clinical isolates containing a D30N substitution without evidence of cross-resistance (FC≧2.5) to other PIs.

SMILES: COC(=O)N[C@H](C(=O)N[C@@H](Cc1ccccc1)[C@@H](O)CN(Cc1ccc(-c2ccccn2)cc1)NC(=O)[C@@H](NC(=O)OC)C(C)(C)C)C(C)(C)C [ATV, atazanavir]
- percentage of isolates remaining susceptible to ATV ([1]; isolates resistant to 1 PI): 88%
- percentage of isolates remaining susceptible to ATV ([1]; isolates resistant to 2 PIs): 81%
- percentage of isolates remaining susceptible to ATV ([1]; isolates resistant to 3 PIs): 34%
- percentage of isolates remaining susceptible to ATV ([1]; isolates resistant to 4 PIs): 16%
- percentage of isolates remaining susceptible to ATV ([1]; isolates resistant to 5 PIs): 5%
- mean time to virologic failure [2]: 50 weeks
- Ki [3]: < 1 nM
- Virologic Failures (%) [4]: 21%
- Virologic Failures, number [4]: 51
- Virologic Failures (%) [5]: 24%
- Virologic Failures, number [5]: 88
- Virologic Failures (%) [6]: 17%
- Virologic Failures, number [6]: 69
- median FC [7]: small median decreases in susceptibility
